Test results: patent US20140348819A1, “Methods of Treating Cancer” (Dana-Farber Cancer Institute, Inc., priority 2011, published 2014)

Test system: six V600E BRAF melanoma cell lines
Assay: Screening of recombinant RTK ligands for ability to confer resistance to BRAFi (PLX4720) or MEKi (PD184352) (Table 4)
Type: cell-based, human
Parameters: ability of recombinant RTK ligand to confer resistance / ability of recombinant RTK ligand to confer resistance (screening value): scale not given here
Procedure: HGF is the only one that can substantially confer drug resistance to the cell lines.
The complexity of the tumor microenvironment is much greater than an in vitro co-culture system. Therefore, the inventors explored whether the activation of other RTKs could result in a similar resistance as that observed with the activation of MET. To this end, six V600E BRAF melanoma cell lines were tested for their resistance to either BRAFi (PLX4720) or MEKi (PD184352) after the addition of 22 RTK ligands that have the potential of activating almost all known RTKs. […] The activation of a selected subset of these RTKs was confirmed by western blotting and by high throughput tyrosine kinase phosphorylation profiling.

[1] = A2058, PD184352 - 1 uM, ligand 0.4 ng/ml
[2] = A2058, PD184352 - 1 uM, ligand 1.6 ng/ml
[3] = A2058, PD184352 - 1 uM, ligand 6.25 ng/ml
[4] = A2058, PD184352 - 1 uM, ligand 25 ng/ml
[5] = A2058, PD184352 - 1 uM, ligand 100 ng/ml
[6] = A2058, PLX4720 - 2 uM, ligand 0.4 ng/ml
[7] = A2058, PLX4720 - 2 uM, ligand 1.6 ng/ml
[8] = A2058, PLX4720 - 2 uM, ligand 6.25 ng/ml
[9] = A2058, PLX4720 - 2 uM, ligand 25 ng/ml
[10] = A2058, PLX4720 - 2 uM, ligand 100 ng/ml
[11] = C32, PD184352 - 1 uM, ligand 0.4 ng/ml
[12] = C32, PD184352 - 1 uM, ligand 1.6 ng/ml
[13] = C32, PD184352 - 1 uM, ligand 6.25 ng/ml
[14] = C32, PD184352 - 1 uM, ligand 25 ng/ml
[15] = C32, PD184352 - 1 uM, ligand 100 ng/ml
[16] = C32, PLX4720 - 2 uM, ligand 0.4 ng/ml
[17] = C32, PLX4720 - 2 uM, ligand 1.6 ng/ml
[18] = C32, PLX4720 - 2 uM, ligand 6.25 ng/ml
[19] = C32, PLX4720 - 2 uM, ligand 25 ng/ml
[20] = C32, PLX4720 - 2 uM, ligand 100 ng/ml
[21] = Colo 829, PD184352 - 1 uM, ligand 0.4 ng/ml
[22] = Colo 829, PD184352 - 1 uM, ligand 1.6 ng/ml
[23] = Colo 829, PD184352 - 1 uM, ligand 6.25 ng/ml
[24] = Colo 829, PD184352 - 1 uM, ligand 25 ng/ml
[25] = Colo 829, PD184352 - 1 uM, ligand 100 ng/ml
[26] = Colo 829, PLX4720 - 2 uM, ligand 0.4 ng/ml
[27] = Colo 829, PLX4720 - 2 uM, ligand 1.6 ng/ml
[28] = Colo 829, PLX4720 - 2 uM, ligand 6.25 ng/ml
[29] = Colo 829, PLX4720 - 2 uM, ligand 25 ng/ml
[30] = Colo 829, PLX4720 - 2 uM, ligand 100 ng/ml
[31] = G-361, PD184352 - 1 uM, ligand 0.4 ng/ml
[32] = G-361, PD184352 - 1 uM, ligand 1.6 ng/ml
[33] = G-361, PD184352 - 1 uM, ligand 6.25 ng/ml
[34] = G-361, PD184352 - 1 uM, ligand 25 ng/ml
[35] = G-361, PD184352 - 1 uM, ligand 100 ng/ml
[36] = G-361, PLX4720 - 2 uM, ligand 0.4 ng/ml
[37] = G-361, PLX4720 - 2 uM, ligand 1.6 ng/ml
[38] = G-361, PLX4720 - 2 uM, ligand 6.25 ng/ml
[39] = G-361, PLX4720 - 2 uM, ligand 25 ng/ml
[40] = G-361, PLX4720 - 2 uM, ligand 100 ng/ml
[41] = SK-MEL-5, PD184352 - 1 uM, ligand 0.4 ng/ml
[42] = SK-MEL-5, PD184352 - 1 uM, ligand 1.6 ng/ml
[43] = SK-MEL-5, PD184352 - 1 uM, ligand 6.25 ng/ml
[44] = SK-MEL-5, PD184352 - 1 uM, ligand 25 ng/ml
[45] = SK-MEL-5, PD184352 - 1 uM, ligand 100 ng/ml
[46] = SK-MEL-5, PLX4720 - 2 uM, ligand 0.4 ng/ml
[47] = SK-MEL-5, PLX4720 - 2 uM, ligand 1.6 ng/ml
[48] = SK-MEL-5, PLX4720 - 2 uM, ligand 6.25 ng/ml
[49] = SK-MEL-5, PLX4720 - 2 uM, ligand 25 ng/ml
[50] = SK-MEL-5, PLX4720 - 2 uM, ligand 100 ng/ml
[51] = SK-MEL-28, PD184352 - 1 uM, ligand 0.4 ng/ml
[52] = SK-MEL-28, PD184352 - 1 uM, ligand 1.6 ng/ml
[53] = SK-MEL-28, PD184352 - 1 uM, ligand 6.25 ng/ml
[54] = SK-MEL-28, PD184352 - 1 uM, ligand 25 ng/ml
[55] = SK-MEL-28, PD184352 - 1 uM, ligand 100 ng/ml
[56] = SK-MEL-28, PLX4720 - 2 uM, ligand 0.4 ng/ml
[57] = SK-MEL-28, PLX4720 - 2 uM, ligand 1.6 ng/ml
[58] = SK-MEL-28, PLX4720 - 2 uM, ligand 6.25 ng/ml
[59] = SK-MEL-28, PLX4720 - 2 uM, ligand 25 ng/ml
[60] = SK-MEL-28, PLX4720 - 2 uM, ligand 100 ng/ml

FGF1
ability of recombinant RTK ligand to confer resistance [1]: 1.04
ability of recombinant RTK ligand to confer resistance [2]: 1.05
ability of recombinant RTK ligand to confer resistance [3]: 1.04
ability of recombinant RTK ligand to confer resistance [4]: 1.12
ability of recombinant RTK ligand to confer resistance [5]: 1.19
ability of recombinant RTK ligand to confer resistance [6]: 1.02
ability of recombinant RTK ligand to confer resistance [7]: 1.01
ability of recombinant RTK ligand to confer resistance [8]: 0.96
ability of recombinant RTK ligand to confer resistance [9]: 1.05
ability of recombinant RTK ligand to confer resistance [10]: 1.11
ability of recombinant RTK ligand to confer resistance [11]: 1.01
ability of recombinant RTK ligand to confer resistance [12]: 1.04
ability of recombinant RTK ligand to confer resistance [13]: 1.03
ability of recombinant RTK ligand to confer resistance [14]: 1.02
ability of recombinant RTK ligand to confer resistance [15]: 0.97
ability of recombinant RTK ligand to confer resistance [16]: 1.11
ability of recombinant RTK ligand to confer resistance [17]: 1.10
ability of recombinant RTK ligand to confer resistance [18]: 1.08
ability of recombinant RTK ligand to confer resistance [19]: 0.93
ability of recombinant RTK ligand to confer resistance [20]: 1.00
ability of recombinant RTK ligand to confer resistance [21]: 1.02
ability of recombinant RTK ligand to confer resistance [22]: 1.11
ability of recombinant RTK ligand to confer resistance [23]: 1.00
ability of recombinant RTK ligand to confer resistance [24]: 1.08
ability of recombinant RTK ligand to confer resistance [25]: 1.12
ability of recombinant RTK ligand to confer resistance [26]: 0.99
ability of recombinant RTK ligand to confer resistance [27]: 1.09
ability of recombinant RTK ligand to confer resistance [28]: 1.02
ability of recombinant RTK ligand to confer resistance [29]: 1.07
ability of recombinant RTK ligand to confer resistance [30]: 1.06
ability of recombinant RTK ligand to confer resistance [31]: 0.99
ability of recombinant RTK ligand to confer resistance [32]: 1.09
ability of recombinant RTK ligand to confer resistance [33]: 0.99
ability of recombinant RTK ligand to confer resistance [34]: 1.08
ability of recombinant RTK ligand to confer resistance [35]: 1.04
ability of recombinant RTK ligand to confer resistance [36]: 0.96
ability of recombinant RTK ligand to confer resistance [37]: 0.95
ability of recombinant RTK ligand to confer resistance [38]: 0.92
ability of recombinant RTK ligand to confer resistance [39]: 0.89
ability of recombinant RTK ligand to confer resistance [40]: 1.08
ability of recombinant RTK ligand to confer resistance [41]: 0.98
ability of recombinant RTK ligand to confer resistance [42]: 1.07
ability of recombinant RTK ligand to confer resistance [43]: 1.14
ability of recombinant RTK ligand to confer resistance [44]: 1.17
ability of recombinant RTK ligand to confer resistance [45]: 1.36
ability of recombinant RTK ligand to confer resistance [46]: 1.01
ability of recombinant RTK ligand to confer resistance [47]: 1.12
ability of recombinant RTK ligand to confer resistance [48]: 1.12
ability of recombinant RTK ligand to confer resistance [49]: 1.09
ability of recombinant RTK ligand to confer resistance [50]: 1.28
ability of recombinant RTK ligand to confer resistance [51]: 1.05
ability of recombinant RTK ligand to confer resistance [52]: 0.87
ability of recombinant RTK ligand to confer resistance [53]: 0.90
ability of recombinant RTK ligand to confer resistance [54]: 0.92
ability of recombinant RTK ligand to confer resistance [55]: 1.06
ability of recombinant RTK ligand to confer resistance [56]: 1.00
ability of recombinant RTK ligand to confer resistance [57]: 1.02
ability of recombinant RTK ligand to confer resistance [58]: 1.10
ability of recombinant RTK ligand to confer resistance [59]: 0.98
ability of recombinant RTK ligand to confer resistance [60]: 1.08

IGF-I
ability of recombinant RTK ligand to confer resistance [1]: 1.10
ability of recombinant RTK ligand to confer resistance [2]: 1.02
ability of recombinant RTK ligand to confer resistance [3]: 1.03
ability of recombinant RTK ligand to confer resistance [4]: 1.08
ability of recombinant RTK ligand to confer resistance [5]: 1.02
ability of recombinant RTK ligand to confer resistance [6]: 1.05
ability of recombinant RTK ligand to confer resistance [7]: 0.95
ability of recombinant RTK ligand to confer resistance [8]: 0.97
ability of recombinant RTK ligand to confer resistance [9]: 1.04
ability of recombinant RTK ligand to confer resistance [10]: 0.99
ability of recombinant RTK ligand to confer resistance [11]: 1.05
ability of recombinant RTK ligand to confer resistance [12]: 1.04
ability of recombinant RTK ligand to confer resistance [13]: 1.21
ability of recombinant RTK ligand to confer resistance [14]: 1.16
ability of recombinant RTK ligand to confer resistance [15]: 1.21
ability of recombinant RTK ligand to confer resistance [16]: 1.08
ability of recombinant RTK ligand to confer resistance [17]: 1.12
ability of recombinant RTK ligand to confer resistance [18]: 1.17
ability of recombinant RTK ligand to confer resistance [19]: 1.15
ability of recombinant RTK ligand to confer resistance [20]: 1.07
ability of recombinant RTK ligand to confer resistance [21]: 1.06
ability of recombinant RTK ligand to confer resistance [22]: 0.97
ability of recombinant RTK ligand to confer resistance [23]: 1.03
ability of recombinant RTK ligand to confer resistance [24]: 1.01
ability of recombinant RTK ligand to confer resistance [25]: 1.08
ability of recombinant RTK ligand to confer resistance [26]: 1.00
ability of recombinant RTK ligand to confer resistance [27]: 0.99
ability of recombinant RTK ligand to confer resistance [28]: 1.06
ability of recombinant RTK ligand to confer resistance [29]: 1.03
ability of recombinant RTK ligand to confer resistance [30]: 1.07
ability of recombinant RTK ligand to confer resistance [31]: 1.06
ability of recombinant RTK ligand to confer resistance [32]: 1.00
ability of recombinant RTK ligand to confer resistance [33]: 1.17
ability of recombinant RTK ligand to confer resistance [34]: 0.99
ability of recombinant RTK ligand to confer resistance [35]: 0.95
ability of recombinant RTK ligand to confer resistance [36]: 1.03
ability of recombinant RTK ligand to confer resistance [37]: 1.05
ability of recombinant RTK ligand to confer resistance [38]: 1.11
ability of recombinant RTK ligand to confer resistance [39]: 0.99
ability of recombinant RTK ligand to confer resistance [40]: 0.87
ability of recombinant RTK ligand to confer resistance [41]: 1.01
ability of recombinant RTK ligand to confer resistance [42]: 1.01
ability of recombinant RTK ligand to confer resistance [43]: 1.08
ability of recombinant RTK ligand to confer resistance [44]: 1.06
ability of recombinant RTK ligand to confer resistance [45]: 1.29
ability of recombinant RTK ligand to confer resistance [46]: 1.01
ability of recombinant RTK ligand to confer resistance [47]: 1.03
ability of recombinant RTK ligand to confer resistance [48]: 1.19
ability of recombinant RTK ligand to confer resistance [49]: 1.25
ability of recombinant RTK ligand to confer resistance [50]: 1.12
ability of recombinant RTK ligand to confer resistance [51]: 1.10
ability of recombinant RTK ligand to confer resistance [52]: 1.06
ability of recombinant RTK ligand to confer resistance [53]: 0.98
ability of recombinant RTK ligand to confer resistance [54]: 1.06
ability of recombinant RTK ligand to confer resistance [55]: 1.12
ability of recombinant RTK ligand to confer resistance [56]: 1.24
ability of recombinant RTK ligand to confer resistance [57]: 1.08
ability of recombinant RTK ligand to confer resistance [58]: 1.09
ability of recombinant RTK ligand to confer resistance [59]: 1.02
ability of recombinant RTK ligand to confer resistance [60]: 1.01
